PMC11995724, “Antibiotic target discovery by integrated phenotypic and activity-based profiling of electrophilic fragments” (Cell chemical biology, 2025)
Structures can show the parent of a compound that is named as a salt.

Experiment: in vitro
Conditions: human, hek293t cells

| Compound | viability at 48 h, 25 µM |
| --- | --- |
| CCn1nc(C)c(CN(C)C(=O)CCl)c1C [5-A10, 2-chloro-N-[(1-ethyl-3,5-dimethyl-1H-pyrazol-4-yl)methyl]-N-methylacetamide] | 1.55% |
| O=C(CCl)NC1CCC(O)(c2cccc(F)c2)CC1 (stereo not drawn) [5-A11, 2-chloro-N-[4-(3-fluorophenyl)-4-hydroxycyclohexyl]acetamide] | 0.51% |
| CC(C)CN(C(=O)CCl)c1cnn(-c2ccccn2)c1 [5-A12, 2-chloro-N-(2-methylpropyl)-N-[1-(pyridin-2-yl)-1H-pyrazol-4-yl]acetamide] | 0.323% |
| Cc1cccc(C)c1NC(=O)CN(C)C(=O)CCl [5-A13, 2-chloro-N-{[(2,6-dimethylphenyl)carbamoyl]methyl}-N-methylacetamide] | 0.212% |
| Cc1nn(C)c(C)c1CN(C(=O)CCl)C1CCCCC1C (stereo not drawn) [5-A14, 2-chloro-N-(2-methylcyclohexyl)-N-[(1,3,5-trimethyl-1H-pyrazol-4-yl)methyl]acetamide] | 0.467% |
| COc1ccc(CN2CCN(C(=O)CCl)CC2)cc1 [5-A15, 2-chloro-1-{4-[(4-methoxyphenyl)methyl]piperazin-1-yl}ethan-1-one hydrochloride] | -0.117% |
| Cn1nnc(CN(C(=O)CCl)C2CCCCCCC2)n1 [5-A16, 2-chloro-N-cyclooctyl-N-[(2-methyl-2H-1,2,3,4-tetrazol-5-yl)methyl]acetamide] | 0.784% |
| CC(NC(=O)CCl)c1ccc(-c2ccccc2)cc1 (stereo not drawn) [5-A17, N-(1-{[1,1'-biphenyl]-4-yl}ethyl)-2-chloroacetamide] | 123% |
| CN(C(=O)CCl)C1CCN(c2ccccc2F)C1=O (stereo not drawn) [5-A18, 2-chloro-N-[1-(2-fluorophenyl)-2-oxopyrrolidin-3-yl]-N-methylacetamide] | 0.916% |
| CC(Cl)C(=O)NCc1ccc(F)cc1 (stereo not drawn) [5-A19, 2-chloro-N-[(4-fluorophenyl)methyl]propanamide] | 76.2% |
| O=C(CCl)N1CCn2c(cc3ccccc32)C1 [5-A20, 2-chloro-1-{1H,2H,3H,4H-pyrazino[1,2-a]indol-2-yl}ethan-1-one] | 0.499% |
| CC(Cl)C(=O)NC(c1ccccc1)c1ccccc1 (stereo not drawn) [5-A21, 2-chloro-N-(diphenylmethyl)propanamide] | 85.8% |
| Cn1cc(NC(=O)CCl)c(C(=O)NC2CCC2)n1 [5-A22, 4-(2-chloroacetamido)-N-cyclobutyl-1-methyl-1H-pyrazole-3-carboxamide] | 2.84% |
| C[C@H]1CN(C(=O)CCl)Cc2cccn21 [5-B03, 2-chloro-1-[(4S)-4-methyl-1H,2H,3H,4H-pyrrolo[1,2-a]pyrazin-2-yl]ethan-1-one] | 0.688% |
| O=C(CCl)Nc1c(Cl)cccc1C(F)(F)F [5-B04, 2-chloro-N-[2-chloro-6-(trifluoromethyl)phenyl]acetamide] | 1.62% |
| C=CCN(Cc1cccs1)C(=O)CCl [5-B06, 2-chloro-N-(prop-2-en-1-yl)-N-[(thiophen-2-yl)methyl]acetamide] | 0.0461% |
| COCc1nc(C2CCCCCN2C(=O)CCl)no1 (stereo not drawn) [5-B07, 2-chloro-1-{2-[5-(methoxymethyl)-1,2,4-oxadiazol-3-yl]azepan-1-yl}ethan-1-one] | 1.24% |
| CCN(C(=O)CCl)c1cccc2ccccc12 [5-B08, 2-chloro-N-ethyl-N-(naphthalen-1-yl)acetamide] | 0.156% |
| CC(Cl)C(=O)NCc1ccco1 (stereo not drawn) [5-B09, 2-chloro-N-[(furan-2-yl)methyl]propanamide] | 96.6% |
| CC(Cl)C(=O)Nc1cccc(C#N)c1 (stereo not drawn) [5-B10, 2-chloro-N-(3-cyanophenyl)propanamide] | 77.3% |
| CCc1nocc1CN(C)C(=O)CCl [5-B11, 2-chloro-N-[(3-ethyl-1,2-oxazol-4-yl)methyl]-N-methylacetamide] | 1.49% |
| COC(=O)c1ccccc1NC(=O)CCl [5-B12, methyl 2-(2-chloroacetamido)benzoate] | 77.7% |
| Cc1cc(Cl)ccc1CN1CCN(C(=O)C(C)Cl)CC1 (stereo not drawn) [5-B13, 2-chloro-1-{4-[(4-chloro-2-methylphenyl)methyl]piperazin-1-yl}propan-1-one] | 94.8% |
| O=C(CCl)Nc1ccccn1 [5-B14, 2-chloro-N-(pyridin-2-yl)acetamide hydrochloride] | 73.1% |
| O=C(CCl)N(Cc1ccoc1)C1CCCCC1 [5-B15, 2-chloro-N-cyclohexyl-N-[(furan-3-yl)methyl]acetamide] | 0.638% |
| O=C(CCl)Nc1c(Cl)cc(Cl)cc1Cl [5-B16, 2-chloro-N-(2,4,6-trichlorophenyl)acetamide] | 123% |
| CC(Cl)C(=O)N(Cc1nnc(-c2ccccc2Cl)o1)C1CC1 (stereo not drawn) [5-B17, 2-chloro-N-{[5-(2-chlorophenyl)-1,3,4-oxadiazol-2-yl]methyl}-N-cyclopropylpropanamide] | 134% |

| Compound | viability at 48 h, 25 µM |
| --- | --- |
| CC(Cl)C(=O)Nc1cccc(CSc2ccccn2)c1 (stereo not drawn) [5-B18, 2-chloro-N-{3-[(pyridin-2-ylsulfanyl)methyl]phenyl}propanamide] | 119% |
| CC(Cl)C(=O)NC1CC(C)N(c2ccccc2)C1=O (stereo not drawn) [5-B19, 2-chloro-N-(5-methyl-2-oxo-1-phenylpyrrolidin-3-yl)propanamide] | 112% |
| CC(Cl)C(=O)Nc1sc2c(c1C#N)CCCCC2 (stereo not drawn) [5-B20, 2-chloro-N-{3-cyano-4H,5H,6H,7H,8H-cyclohepta[b]thiophen-2-yl}propanamide] | 60% |
| CC1CN(Cc2ccccc2)CC(C)N(C(=O)C(C)Cl)C1 (stereo not drawn) [5-B21, 1-(4-benzyl-2,6-dimethyl-1,4-diazepan-1-yl)-2-chloropropan-1-one] | 122% |
| CC(Cl)C(=O)N(C)Cc1ncc(C2CC2)o1 (stereo not drawn) [5-B22, 2-chloro-N-[(5-cyclopropyl-1,3-oxazol-2-yl)methyl]-N-methylpropanamide] | 66.9% |
| NC(=O)CCN(C(=O)CCl)c1ccc(F)cc1 [5-C03, 3-[2-chloro-N-(4-fluorophenyl)acetamido]propanamide] | 1.62% |
| Cn1nccc1CN1C[C@@H](F)C[C@H]1CNC(=O)CCl [5-C04, 2-chloro-N-{[(2S,4S)-4-fluoro-1-[(1-methyl-1H-pyrazol-5-yl)methyl]pyrrolidin-2-yl]methyl}acetamide] | 117% |
| COc1cc(NC(=O)CCl)c(OC)cc1Cl [5-C05, 2-chloro-N-(4-chloro-2,5-dimethoxyphenyl)acetamide] | 0.731% |
| Cc1cccc(NC(=O)[C@@H]2CCCN2C(=O)CCl)n1 [5-C06, (2S)-1-(2-chloroacetyl)-N-(6-methylpyridin-2-yl)pyrrolidine-2-carboxamide] | 0.946% |
| O=C(CCl)NCC1CCCCN1C(=O)C(F)(F)F (stereo not drawn) [5-C07, 2-chloro-N-{[1-(2,2,2-trifluoroacetyl)piperidin-2-yl]methyl}acetamide] | 1.83% |
| CCc1nc(C2CCCN2C(=O)CCl)no1 (stereo not drawn) [5-C08, 2-chloro-1-[2-(5-ethyl-1,2,4-oxadiazol-3-yl)pyrrolidin-1-yl]ethan-1-one] | 1.18% |
| O=C(CCl)NC1CCN(C(=O)C2COc3ccccc3O2)CC1 (stereo not drawn) [5-C09, 2-chloro-N-[1-(2,3-dihydro-1,4-benzodioxine-2-carbonyl)piperidin-4-yl]acetamide] | 1.13% |
| CNC(=O)c1ccc(O)c(NC(=O)CCl)c1 [5-C10, 3-(2-chloroacetamido)-4-hydroxy-N-methylbenzamide] | 114% |
| CC(C)C1C(=O)Nc2ccc(Cl)cc2N1C(=O)CCl (stereo not drawn) [5-C11, 6-chloro-4-(2-chloroacetyl)-3-(propan-2-yl)-1,2,3,4-tetrahydroquinoxalin-2-one] | -0.0252% |
| Cc1cc(CN(C(=O)CCl)c2csnc2C)cs1 [5-C12, 2-chloro-N-(3-methyl-1,2-thiazol-4-yl)-N-[(5-methylthiophen-3-yl)methyl]acetamide] | 0.6% |
| Cc1c(CN(CC2CC=CCC2)C(=O)CCl)cnn1C (stereo not drawn) [5-C14, 2-chloro-N-[(cyclohex-3-en-1-yl)methyl]-N-[(1,5-dimethyl-1H-pyrazol-4-yl)methyl]acetamide] | 0.469% |
| Cn1nc(C(F)(F)F)cc1CN(C(=O)CCl)C1CCCC1 [5-C16, 2-chloro-N-cyclopentyl-N-{[1-methyl-3-(trifluoromethyl)-1H-pyrazol-5-yl]methyl}acetamide] | 0.815% |
| COc1ccccc1NC(=O)c1ccc(NC(=O)C(C)Cl)cc1 (stereo not drawn) [5-C17, 4-(2-chloropropanamido)-N-(2-methoxyphenyl)benzamide] | 58% |
| O=C(CCl)NCC12CCCCC1C2(F)F (stereo not drawn) [5-C18, 2-chloro-N-({7,7-difluorobicyclo[4.1.0]heptan-1-yl}methyl)acetamide] | 8.39% |
| CC(Cl)C(=O)Nc1ccc2c(c1)CCC2 (stereo not drawn) [5-C19, 2-chloro-N-(2,3-dihydro-1H-inden-5-yl)propanamide] | 68.8% |
| COc1cccc2c1CCC2(CO)NC(=O)CCl (stereo not drawn) [5-C20, 2-chloro-N-[1-(hydroxymethyl)-4-methoxy-2,3-dihydro-1H-inden-1-yl]acetamide] | 58.2% |
| CC(Cl)C(=O)Nc1sccc1C(N)=O (stereo not drawn) [5-C21, 2-(2-chloropropanamido)thiophene-3-carboxamide] | 85.4% |
| CN1CCN(C(=O)Cc2cccc(NC(=O)CCl)c2)CC1 [5-C22, 2-chloro-N-{3-[2-(4-methylpiperazin-1-yl)-2-oxoethyl]phenyl}acetamide] | 1.44% |
| O=C(CCl)N1CCN(C(=O)c2cn(C3CC3)nn2)CC1 [5-D03, 2-chloro-1-[4-(1-cyclopropyl-1H-1,2,3-triazole-4-carbonyl)piperazin-1-yl]ethan-1-one] | 2.35% |
| CCOC(=O)c1c(NC(=O)C(C)Cl)sc2c1CCC(C)C2 (stereo not drawn) [5-D04, ethyl 2-(2-chloropropanamido)-6-methyl-4,5,6,7-tetrahydro-1-benzothiophene-3-carboxylate] | 90.9% |
| O=C(NC1CCCN(C(=O)CCl)C1)c1cc2ccccc2o1 (stereo not drawn) [5-D05, N-[1-(2-chloroacetyl)piperidin-3-yl]-1-benzofuran-2-carboxamide] | 0.852% |
| CC(Cl)C(=O)N(C)c1ccccc1 (stereo not drawn) [5-D06, 2-chloro-N-methyl-N-phenylpropanamide] | 102% |
